Data published in ChEMBL document CHEMBL3044830, “Synthesis, characterization, antibacterial, antifungal, and immunomodulating activities of gatifloxacin derivatives” (Med Chem Res, 2010).

What was measured:
[1] = system: Fusarium solani; experiment: Antifungal activity against Fusarium solani assessed as concentration required to obtain a zone of inhibition of 20 mm after 7 days by disk diffusion method; type: functional
[2] = system: Klebsiella pneumoniae; experiment: Antibacterial activity against Klebsiella pneumoniae assessed as concentration required to obtain a zone of inhibition of 5 mm after 18 to 24 hr by disk diffusion method; type: functional
[3] = Antibacterial activity against Hofmanni bacterium assessed as concentration required to obtain a zone of inhibition of 20 mm after 18 to 24 hr by disc diffusion method
[4] = system: Proteus mirabilis; experiment: Antibacterial activity against Proteus mirabilis assessed as concentration required to obtain a zone of inhibition of 5 mm after 18 to 24 hr by disc diffusion method; type: functional
[5] = system: Proteus mirabilis; experiment: Antibacterial activity against Proteus mirabilis assessed as concentration required to obtain a zone of inhibition of 10 mm after 18 to 24 hr by disc diffusion method; type: functional
[6] = system: Citrobacter; experiment: Antibacterial activity against Citrobacter assessed as concentration required to obtain a zone of inhibition of 5 mm after 18 to 24 hr by disk diffusion method; type: functional
[7] = system: Blood; experiment: Antioxidant activity in Homo sapiens (human) whole blood assessed as inhibition of ROS production after 30 min by luminol-enhanced chemiluminescence assay; type: functional, tissue-based; conditions: 0.5 h
[8] = system: T-cell; experiment: Anti-inflammatory activity in Homo sapiens (human) T lymphocytes assessed as inhibition of PHA-induced [3H] thymidine uptake at 12.5 ug/ml incubated for 72 hr prior to [3H]thymidine addition measured after 18 hr by liquid scintillation method; type: functional
[9] = system: Citrobacter; experiment: Antibacterial activity against Citrobacter assessed as concentration required to obtain a zone of inhibition of 10 mm after 18 to 24 hr by disk diffusion method; type: functional
[10] = system: Escherichia coli; experiment: Antibacterial activity against Escherichia coli assessed as concentration required to obtain a zone of inhibition of 5 mm after 18 to 24 hr by disk diffusion method; type: functional
[11] = system: Trichophyton rubrum; experiment: Antifungal activity against Trichophyton rubrum assessed as concentration required to obtain a zone of inhibition of 40 mm after 7 days by disk diffusion method; type: functional
[12] = system: Klebsiella pneumoniae; experiment: Antibacterial activity against Klebsiella pneumoniae assessed as concentration required to obtain a zone of inhibition of 20 mm after 18 to 24 hr by disk diffusion method; type: functional
[13] = system: T-cell; experiment: Anti-inflammatory activity in Homo sapiens (human) T lymphocytes assessed as inhibition of PHA-induced [3H] thymidine uptake at 3.12 ug/ml incubated for 72 hr prior to [3H]thymidine addition measured after 18 hr by liquid scintillation method; type: functional
[14] = system: T-cell; experiment: Anti-inflammatory activity in Homo sapiens (human) T lymphocytes assessed as inhibition of PHA-induced [3H] thymidine uptake at 50 ug/ml incubated for 72 hr prior to [3H]thymidine addition measured after 18 hr by liquid scintillation method; type: functional
[15] = system: Escherichia coli; experiment: Antibacterial activity against Escherichia coli assessed as concentration required to obtain a zone of inhibition of 20 mm after 18 to 24 hr by disk diffusion method; type: functional
[16] = system: Blood; experiment: Antioxidant activity in Homo sapiens (human) whole blood assessed as inhibition of ROS production at 50 ug/ml after 30 min by luminol-enhanced chemiluminescence assay; type: functional; conditions: 0.5 h
[17] = system: Shigella sp.; experiment: Antibacterial activity against Shigella typhi assessed as concentration required to obtain a zone of inhibition of 20 mm after 18 to 24 hr by disc diffusion method; type: functional
[18] = system: Bacillus subtilis; experiment: Antibacterial activity against Bacillus subtilis assessed as concentration required to obtain a zone of inhibition of 20 mm after 18 to 24 hr by disk diffusion method; type: functional
[19] = system: Bacillus subtilis; experiment: Antibacterial activity against Bacillus subtilis assessed as concentration required to obtain a zone of inhibition of 10 mm after 18 to 24 hr by disk diffusion method; type: functional
[20] = system: T-cell; experiment: Anti-inflammatory activity in Homo sapiens (human) T lymphocytes assessed as inhibition of PHA-induced [3H] thymidine uptake incubated for 72 hr prior to [3H]thymidine addition measured after 18 hr by liquid scintillation method; type: functional, cell-based
[21] = system: Blood; experiment: Antioxidant activity in Homo sapiens (human) whole blood assessed as inhibition of ROS production at 12.5 ug/ml after 30 min by luminol-enhanced chemiluminescence assay; type: functional; conditions: 0.5 h
[22] = system: Escherichia coli; experiment: Antibacterial activity against Escherichia coli assessed as concentration required to obtain a zone of inhibition of 10 mm after 18 to 24 hr by disk diffusion method; type: functional
[23] = system: Candida albicans; experiment: Antifungal activity against Candida albicans assessed as concentration required to obtain a zone of inhibition of 40 mm after 7 days by disk diffusion method; type: functional
[24] = system: Shigella flexneri; experiment: Antibacterial activity against Shigella flexneri assessed as concentration required to obtain a zone of inhibition of 5 mm after 18 to 24 hr by disk diffusion method; type: functional
[25] = Antibacterial activity against Hofmanni bacterium assessed as concentration required to obtain a zone of inhibition of 5 mm after 18 to 24 hr by disc diffusion method
[26] = system: Trichophyton rubrum; experiment: Antifungal activity against Trichophyton rubrum assessed as concentration required to obtain a zone of inhibition of 20 mm after 7 days by disk diffusion method; type: functional
[27] = system: Pseudomonas aeruginosa; experiment: Antibacterial activity against Pseudomonas aeruginosa assessed as concentration required to obtain a zone of inhibition of 5 mm after 18 to 24 hr by disk diffusion method; type: functional
[28] = system: Proteus mirabilis; experiment: Antibacterial activity against Proteus mirabilis assessed as concentration required to obtain a zone of inhibition of 20 mm after 18 to 24 hr by disc diffusion method; type: functional
[29] = system: Shigella flexneri; experiment: Antibacterial activity against Shigella flexneri assessed as concentration required to obtain a zone of inhibition of 20 mm after 18 to 24 hr by disk diffusion method; type: functional
[30] = Antibacterial activity against Hofmanni bacterium assessed as concentration required to obtain a zone of inhibition of 10 mm after 18 to 24 hr by disc diffusion method
[31] = system: Fusarium solani; experiment: Antifungal activity against Fusarium solani assessed as concentration required to obtain a zone of inhibition of 40 mm after 7 days by disk diffusion method; type: functional
[32] = system: Bacillus subtilis; experiment: Antibacterial activity against Bacillus subtilis assessed as concentration required to obtain a zone of inhibition of 5 mm after 18 to 24 hr by disk diffusion method; type: functional
[33] = system: Candida albicans; experiment: Antifungal activity against Candida albicans assessed as concentration required to obtain a zone of inhibition of 20 mm after 7 days by disk diffusion method; type: functional
[34] = system: Blood; experiment: Antioxidant activity in Homo sapiens (human) whole blood assessed as inhibition of ROS production at 100 ug/ml after 30 min by luminol-enhanced chemiluminescence assay; type: functional; conditions: 0.5 h
[35] = system: Shigella flexneri; experiment: Antibacterial activity against Shigella flexneri assessed as concentration required to obtain a zone of inhibition of 10 mm after 18 to 24 hr by disk diffusion method; type: functional
[36] = system: Shigella sp.; experiment: Antibacterial activity against Shigella typhi assessed as concentration required to obtain a zone of inhibition of 5 mm after 18 to 24 hr by disc diffusion method; type: functional
[37] = system: Klebsiella pneumoniae; experiment: Antibacterial activity against Klebsiella pneumoniae assessed as concentration required to obtain a zone of inhibition of 10 mm after 18 to 24 hr by disk diffusion method; type: functional
[38] = system: Citrobacter; experiment: Antibacterial activity against Citrobacter assessed as concentration required to obtain a zone of inhibition of 20 mm after 18 to 24 hr by disk diffusion method; type: functional
[39] = system: Pseudomonas aeruginosa; experiment: Antibacterial activity against Pseudomonas aeruginosa assessed as concentration required to obtain a zone of inhibition of 10 mm after 18 to 24 hr by disk diffusion method; type: functional
[40] = system: Pseudomonas aeruginosa; experiment: Antibacterial activity against Pseudomonas aeruginosa assessed as concentration required to obtain a zone of inhibition of 20 mm after 18 to 24 hr by disk diffusion method; type: functional

`COc1c(N2CCNC(C)C2)c(F)cc2c(=O)c(C(=O)O)cn(C3CC3)c12` (stereo not given) [GATIFLOXACIN] showed an Activity [1] of 12 µg/mL, an Activity [2] of 9 µg/mL and an Activity [3] of 15 µg/mL. The Activity [4] was 9 µg/mL, the Activity [5] was 15 µg/mL and the Activity [6] was 15 µg/mL. For the same compound, the IC50 [7] was 31 µg/mL, the inhibition at 12.5 µg/mL [8] was -97.9% and the Activity [9] was 23 µg/mL. For the same compound, the Activity [10] was 7.5 µg/mL, the Activity [11] was 14 µg/mL and the Activity [12] was 19 µg/mL. The inhibition at 3.12 µg/mL [13] was -71.1%, the inhibition at 50 µg/mL [14] was -25.2% and the Activity [15] was 17 µg/mL. It also gave an inhibition at 50 µg/mL [16] of 66%, an Activity [17] of 21 µg/mL and an Activity [18] of 17 µg/mL. For the same compound, the Activity [19] was 15 µg/mL, the IC50 [20] was greater than 50 µg/mL and the inhibition at 12.5 µg/mL [21] was 19.7%. For the same compound, the Activity [22] was 12 µg/mL, the Activity [23] was 9 µg/mL and the Activity [24] was 9 µg/mL. For the same compound, the Activity [25] was 8 µg/mL, the Activity [26] was 12 µg/mL and the Activity [27] was 8 µg/mL. It also gave an Activity [28] of 19 µg/mL, an Activity [29] of 23 µg/mL and an Activity [30] of 13 µg/mL. The Activity [31] was 18 µg/mL, the Activity [32] was 11 µg/mL and the Activity [33] was 8 µg/mL. The inhibition at 100 µg/mL [34] was 84.7%, the Activity [35] was 16 µg/mL and the Activity [36] was 8 µg/mL. The Activity [37] was 14 µg/mL, the Activity [38] was 26 µg/mL and the Activity [39] was 12 µg/mL. It also gave an Activity [40] of 14 µg/mL.
